Assay results from ChEMBL document CHEMBL1201862, “PubChem BioAssay data set” (2004).
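Protocol summary: plate cells (96-well), add compound at 5 concentrations, incubate 48 h, interpolate endpoints linearly. GI50 is the concentration that inhibits growth by half.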 The source made the active and inactive calls. Rule as the data show it: active = GI50 up to about 1.1 µM and inactive = higher.

Key:
Experiment in all cases: NCI anticancer screen, dose series, 48 h
[1] = test system: 786-0
[2] = test system: A498
[3] = test system: A549
[4] = test system: ACHN
[5] = test system: BT-549
[6] = test system: CAKI-1
[7] = test system: CCRF-CEM
[8] = test system: COLO 205
[9] = test system: DU-145
[10] = test system: EKVX
[11] = test system: HCC 2998
[12] = test system: HCT-116
[13] = test system: HCT-15
[14] = test system: HOP-62
[15] = test system: HOP-92
[16] = test system: HT-29
[17] = test system: Hs-578T
[18] = test system: IGROV-1
[19] = test system: K562
[20] = test system: KM12
[21] = test system: LOX IMVI
[22] = test system: M14
[23] = test system: MCF7
[24] = test system: MDA-MB-231
[25] = test system: MDA-MB-435
[26] = test system: MDA-N
[27] = test system: MOLT-4
[28] = test system: Malme-3M
[29] = test system: NCI-H226
[30] = test system: NCI-H23
[31] = test system: NCI-H460
[32] = test system: NCI-H522
[33] = test system: NCI/ADR-RES
[34] = test system: OVCAR-3
[35] = test system: OVCAR-4
[36] = test system: OVCAR-5
[37] = test system: OVCAR-8
[38] = test system: PC-3
[39] = test system: RPMI-8226
[40] = test system: RXF 393
[41] = test system: SF-268
[42] = test system: SF-295
[43] = test system: SF-539
[44] = test system: SK-MEL-28
[45] = test system: SK-MEL-2
[46] = test system: SK-MEL-5
[47] = test system: SK-OV-3
[48] = test system: SN12C
[49] = test system: SNB-19
[50] = test system: SNB-75
[51] = test system: SR
[52] = test system: SW-620
[53] = test system: T47D
[54] = test system: TK-10
[55] = test system: U-251
[56] = test system: UACC-257
[57] = test system: UACC-62
[58] = test system: UO-31
[59] = test system: HL-60

CCOC(=O)c1cn2c(n1)sc1cc(C)c(C)cc12
GI50 [1]: 19 µM (inactive)
GI50 [2]: 17.1 µM (inactive)
GI50 [3]: 18.9 µM (inactive)
GI50 [4]: 19.1 µM (inactive)
GI50 [5]: 28.7 µM (inactive)
GI50 [6]: 20.6 µM (inactive)
GI50 [7]: 24.1 µM (inactive)
GI50 [8]: 26.5 µM (inactive)
GI50 [9]: 21.4 µM (inactive)
GI50 [10]: 22.3 µM (inactive)
GI50 [11]: 66.1 µM (inactive)
GI50 [12]: 17.9 µM (inactive)
GI50 [13]: 27.9 µM
GI50 [14]: 17.1 µM (inactive)
GI50 [15]: 25.4 µM (inactive)
GI50 [16]: 18 µM (inactive)
GI50 [17]: 27.6 µM (inactive)
GI50 [18]: 23 µM (inactive)
GI50 [19]: 14.4 µM (inactive)
GI50 [20]: 15 µM (inactive)
GI50 [21]: 29.1 µM (inactive)
GI50 [22]: 26.5 µM (inactive)
GI50 [23]: 23.6 µM (inactive)
GI50 [24]: 24.3 µM (inactive)
GI50 [25]: 20.3 µM (inactive)
GI50 [26]: 6.04 µM (inactive)
GI50 [27]: 29 µM (inactive)
GI50 [28]: 17.3 µM (inactive)
GI50 [29]: 18.9 µM (inactive)
GI50 [30]: 35.7 µM (inactive)
GI50 [31]: 42.8 µM (inactive)
GI50 [32]: 31 µM (inactive)
GI50 [33]: 27.7 µM (inactive)
GI50 [34]: 17.5 µM (inactive)
GI50 [35]: > 100 µM (inactive)
GI50 [36]: 16.8 µM (inactive)
GI50 [37]: 24.2 µM (inactive)
GI50 [38]: 21.2 µM (inactive)
GI50 [39]: 25.6 µM (inactive)
GI50 [40]: 22.1 µM (inactive)
GI50 [41]: 24 µM (inactive)
GI50 [42]: 32 µM (inactive)
GI50 [43]: 14.6 µM (inactive)
GI50 [44]: 19.2 µM (inactive)
GI50 [45]: 31.6 µM (inactive)
GI50 [46]: 16.5 µM (inactive)
GI50 [47]: 26.5 µM (inactive)
GI50 [48]: 19.1 µM (inactive)
GI50 [49]: 20 µM (inactive)
GI50 [50]: 22.6 µM (inactive)
GI50 [51]: 6.68 µM (inactive)
GI50 [52]: 20.1 µM (inactive)
GI50 [53]: 25.5 µM (inactive)
GI50 [54]: 24.6 µM (inactive)
GI50 [55]: 18.6 µM (inactive)
GI50 [56]: 31.8 µM (inactive)
GI50 [57]: 28.3 µM (inactive)
GI50 [58]: 18.8 µM (inactive)

COc1ccc(CNC2=N/C(=C\c3ccccc3Cl)C(=O)N2C)cc1
GI50 [1]: 19.7 µM (inactive)
GI50 [2]: 25.7 µM (inactive)
GI50 [3]: 31.1 µM (inactive)
GI50 [4]: 29.6 µM (inactive)
GI50 [5]: 36.8 µM (inactive)
GI50 [6]: 30.7 µM (inactive)
GI50 [8]: 24.9 µM (inactive)
GI50 [9]: 27.7 µM (inactive)
GI50 [10]: 28.3 µM (inactive)
GI50 [11]: 21.8 µM (inactive)
GI50 [12]: 18.4 µM (inactive)
GI50 [13]: 28.4 µM
GI50 [59]: 25.8 µM (inactive)
GI50 [14]: 47.8 µM (inactive)
GI50 [15]: 23.1 µM (inactive)
GI50 [16]: 22.9 µM (inactive)
GI50 [17]: 57.4 µM (inactive)
GI50 [18]: 24.9 µM (inactive)
GI50 [19]: 25.5 µM (inactive)
GI50 [20]: 20.4 µM (inactive)
GI50 [21]: 20.1 µM (inactive)
GI50 [22]: 17.9 µM (inactive)
GI50 [23]: 25.5 µM (inactive)
GI50 [24]: 26.4 µM (inactive)
GI50 [25]: 19 µM (inactive)
GI50 [26]: 18.8 µM (inactive)
GI50 [27]: 27.1 µM (inactive)
GI50 [28]: 33 µM (inactive)
GI50 [29]: 49.2 µM (inactive)
GI50 [31]: 30.1 µM (inactive)
GI50 [32]: 20.5 µM (inactive)
GI50 [33]: 28 µM (inactive)
GI50 [34]: 22.8 µM (inactive)
GI50 [35]: 23.9 µM (inactive)
GI50 [36]: 27.9 µM (inactive)
GI50 [37]: 27.1 µM (inactive)
GI50 [38]: 28.1 µM (inactive)
GI50 [40]: 31.8 µM (inactive)
GI50 [41]: 45 µM (inactive)
GI50 [42]: 31.7 µM (inactive)
GI50 [43]: 24.6 µM (inactive)
GI50 [44]: 33 µM (inactive)
GI50 [45]: 19.3 µM (inactive)
GI50 [46]: 19.9 µM (inactive)
GI50 [47]: 51.2 µM (inactive)
GI50 [48]: 19.6 µM (inactive)
GI50 [49]: 38.6 µM (inactive)
GI50 [50]: 11.8 µM (inactive)
GI50 [51]: 25.2 µM (inactive)
GI50 [52]: 19.5 µM (inactive)
GI50 [53]: 14.2 µM (inactive)
GI50 [54]: 37.7 µM (inactive)
GI50 [55]: 17.9 µM (inactive)
GI50 [56]: 33.6 µM (inactive)
GI50 [57]: 17.5 µM (inactive)
